Bridge positions count the residues as written; N and C are the ends. Square brackets hold non-standard residues; d marks the D form. Peptide text beside a SMILES is read from it. * marks the point of attachment. ξ: configuration not given here. Pentadecanoyl(3ξ-OH,15-Gua) = N=C(N)NCCCCCCCCCCCCC(O)CC(=O)*; d(aThr) = C[C@@H](O)[C@@H](N)C(=O)O; Thr(3ξ) = CC(O)[C@H](N)C(=O)O; ξY = NC(Cc1ccc(O)cc1)C(=O)O
How the values were obtained:
[1] = system: soybean (Glycine max 'Sultana'); assay: Greenhouse detection of plant biomass (fresh weight), soybean; type: in vivo; details: 17 days after start, with AS liquid, DMPSA 1% of NH4-N where present
Experimental: (§1) Plants were generally grown under standard green house conditions (20° C. and 60% humidity) using standard greenhouse soil (mixture of peat, loam and sand). Therefore, 0.4 g of ryegrass seeds (Lolium perennes ‘Chagall’), 1 soybean seed (Glycine max ‘Sultana’) or 1 grape vine live stack (Vitis vinifer ssp. ‘Sativa’) were grown per pot (8.4 cm for ryegrass, soybean; 13 cm for grape vine) in a completely randomized set-up. Following a growth period of ten days (ryegrass), 14 days (soybean) or approx. 21 days, until the main shoot reached a length of 20 cm (grape vine), plants were designated for experimental usage.
Detection of ryegrass and soybean biomass (fresh weight) was determined gravitometricallly. Therefore, plants were cut using a hand held lawn cutter (ryegrass) or garden shears (soybean) 1 cm above the soil. Given ryegrass data represent the mean value of respective replicates summed up for 3 cuttings. For experiments using ryegrass, evaluations were conducted 5, 12 and 17 days after start of the experiment. For experiments using soybean, biomass evaluation was conducted 17 days after experimental start.
(§2) In Table N1, the weight ratio between DMPSA and Histick Super is 3.65:1, the weight ratio between DMPSA and Hicoat is 10.43:1.

[2] = system: grape vine (Vitis vinifer ssp. 'Sativa'); assay: Greenhouse shoot elongation, grape vine; type: in vivo; details: grape vine main shoot elongation, 17 days after start; DMPSA 1% of NH4-N, VitoVin 12481 g/ha
Experimental: as §1
For experiments using grape vine, elongation of the main shoot was measured metrically 17 days after experimental start.
In Table N2, the weight ratio between DMPSA and VitoVin is 1:5.6.

N2O emissions from soils = assay: Greenhouse detection of nitrous oxide losses (N2O emission), soybean pots; type: in vivo, Glycine max 'Sultana'; details: DMPSA 1% of NH4-N where present
Experimental: as §1
On application day (DATO), each pot (with/without plants) was set onto a plant saucer designed with an inner compartment for the pot and an outer ring that is filled with water. At time 0, water holding capacity of the soil was set to 60-70% prior to application with/without fertilizer and active ingredient. Subsequently, a gas sampling chamber was placed over the plant saucer such that the rim fit into the ring filled with water to create a gas-tight chamber and 25 cc air from the chamber were drawn into a syringe and immediately emptied in to a Vacutainer (Labco, 12 ml volume). This equals the Time 0 measurement for each pot. The same procedure was performed with all pots in the experiment. After two hour incubation time, again 25 cc air samples were taken from the gas chambers and emptied into Vacutainers as described above. Plants were then returned to their positions in the climate chamber. The procedure was repeated at precisely the same time of day for up to 19 days.
Samples were analyzed in a Shimadzu 2014 GC equipped with an ECD system.
as §2

[3] = system: Fusarium oxysporum, Aspergillus niger, Aspergillus oryzae, and Penicillum thomii; details: J. Antibiotics 49(2), 129-135, 1996; 50(3), 220-228, 1997; cited from earlier work
cultured parsley cells = details: WO2006/016558; EP1 788 074 A1; cited from earlier work
Fusarium oxysporum = details: WO2006/016558; EP1 788 074 A1; cited from earlier work
[4] = system: clinically relevant fungi and gram-positive bacteria such a Staphylococcus aureus; details: variety of clinically relevant fungi and gram-positive bacteria; ChemMedChem 7, 871-882, 2012; cited from earlier work
[5] = system: Fusarium moniliforme, F. oxysporum, F. roseum, Giberella fujkuroi, Helminthosporium sesamum and Penicillium expansum; details: J. Antibiotics 40(11), 1506-1514, 1987; cited from earlier work

For “2-(3,4-dimethyl-1H-pyrazol-1-yl)succinic acid (DMPSA1) and/or 2-(4,5-dimethyl-1H-pyrazol-1-yl)succinic acid (DMPSA2)”, the “Biomass increase [% of fertilized control]” value [1] was 83 % of fertilized control, the “net Biomass increase” value [1] was -2.47 g and the “relative Growth increase [% of control]” value [2] was 104 % of control. For the same compound, the N2O emission ppb (N2O emissions from soils; with AS liquid (ammonium sulfate, 219000 g/ha NH4-N)) was 38 ppb, the “N2O emission ppb net emission” value (N2O emissions from soils; with AS liquid) was 38 ppb and the “% inhibition (N2O emission)” value (N2O emissions from soils; with AS liquid, relative to soybean untreated + AS liquid) was 19%.

In the case of `CC(C)[C@@H]1NC(=O)[C@@H](C(C)C)NC(=O)[C@@H](NC(=O)CC(O)CCCCCCCCCCCCN=C(N)N)C(C)OC(=O)[C@@H](C)NC(=O)[C@@H](CCC(N)=O)NC(=O)[C@@H]([C@H](C)O)NC1=O` (stereo in doubt) [fusaricidin B], the “inhibition of plant pathogenic fungi” value [3] is given as “inhibit plant pathogenic fungi”, the “induction of resistance reactions in cultured parsley cells” value (cultured parsley cells) is given as “induce resistance reactions” and the “inhibition of growth of Fusarium oxysporum” value (Fusarium oxysporum) is given as “inhibit growth”.

For `CC(C)[C@@H]1NC(=O)[C@@H](C(C)C)NC(=O)[C@@H](NC(=O)CC(O)CCCCCCCCCCCCN=C(N)N)[C@@H](C)OC(=O)[C@@H](C)NC(=O)[C@@H](CC(N)=O)NC(=O)[C@@H]([C@@H](C)O)NC1=O` (stereo partly drawn) [fusaricidin A] ({Pentadecanoyl(3ξ-OH,15-Gua)}-T[dV]V[d(aThr)][dN][dA]; ester 1-C), the “inhibition of plant pathogenic fungi” value [3] is given as “inhibit plant pathogenic fungi”, the “induction of resistance reactions in cultured parsley cells” value (cultured parsley cells) is given as “induce resistance reactions” and the MIC value range [4] is given as 0.78 to 3.12 µg/mL. The “inhibition of growth of Fusarium oxysporum” value (Fusarium oxysporum) was “inhibit growth”.

For `CC1OC(=O)[C@@H](C)NC(=O)[C@@H](CC(N)=O)NC(=O)[C@@H]([C@H](C)O)NC(=O)C(Cc2ccc(O)cc2)NC(=O)[C@@H](C(C)C)NC(=O)[C@H]1NC(=O)CC(O)CCCCCCCCCCCCN=C(N)N` (stereo partly drawn) [fusaricidin C] ({Pentadecanoyl(3ξ-OH,15-Gua)}-[Thr(3ξ)][dV][ξY][dT][dN][dA]; ester 1-C), the “inhibition of plant pathogenic fungi” value [3] is given as “inhibit plant pathogenic fungi”.

For `CC1OC(=O)[C@@H](C)NC(=O)[C@@H](CCC(N)=O)NC(=O)[C@@H]([C@H](C)O)NC(=O)C(Cc2ccc(O)cc2)NC(=O)[C@@H](C(C)C)NC(=O)[C@H]1NC(=O)CC(O)CCCCCCCCCCCCN=C(N)N` (stereo partly drawn) [fusaricidin D] ({Pentadecanoyl(3ξ-OH,15-Gua)}-[Thr(3ξ)][dV][ξY][dT][dQ][dA]; ester 1-C), the “inhibition of plant pathogenic fungi” value [3] is given as “inhibit plant pathogenic fungi”.

For fusaricidin LI-F05, the “antifungal activity against various plant pathogenic fungi” value (“antifungal activity” for short) [5] is given as “certain antifungal activity”.

In the case of fusaricidin LI-F07, the “antifungal activity” value [5] is listed as “certain antifungal activity”.

For fusaricidin LI-F08, the “antifungal activity” value [5] is listed as “certain antifungal activity”.

— US20200163342A1, “MIXTURES COMPRISING A BIOPESTICIDE AND A NITRIFICATION INHIBITOR” (BASF SE, priority 2017, published 2020)
